In patent publication US10034861B2 (priority 2016, dated 2018):
Like-named read-outs stand apart in the source and are kept apart here.

What was measured:
Format in all cases: biochemical
[1] = target: PDE1A (Homo sapiens (Human), UniProt P54750); experiment: biochemical
From the text: (§1) Table 1 lists the IC50 value for inhibition of PDE1 by the compounds of the invention. […] PDE1 assays are described in the Experimental Section.

[2] = target: PDE1C (Homo sapiens (Human), UniProt Q14123); experiment: biochemical
From the text: as §1

[3] = target: PDE1B (Homo sapiens (Human), UniProt Q01064); experiment: PDE1 inhibition assay (PDE1B); conditions: 15 nM tritium labelled cAMP, 1 hr at room temperature, SPA beads
From the text: as §1

[4] = 15 nM tritium labelled cAMP, 1 hr at room temperature, SPA beads

Sequence of PDE1A (P54750 whole entry): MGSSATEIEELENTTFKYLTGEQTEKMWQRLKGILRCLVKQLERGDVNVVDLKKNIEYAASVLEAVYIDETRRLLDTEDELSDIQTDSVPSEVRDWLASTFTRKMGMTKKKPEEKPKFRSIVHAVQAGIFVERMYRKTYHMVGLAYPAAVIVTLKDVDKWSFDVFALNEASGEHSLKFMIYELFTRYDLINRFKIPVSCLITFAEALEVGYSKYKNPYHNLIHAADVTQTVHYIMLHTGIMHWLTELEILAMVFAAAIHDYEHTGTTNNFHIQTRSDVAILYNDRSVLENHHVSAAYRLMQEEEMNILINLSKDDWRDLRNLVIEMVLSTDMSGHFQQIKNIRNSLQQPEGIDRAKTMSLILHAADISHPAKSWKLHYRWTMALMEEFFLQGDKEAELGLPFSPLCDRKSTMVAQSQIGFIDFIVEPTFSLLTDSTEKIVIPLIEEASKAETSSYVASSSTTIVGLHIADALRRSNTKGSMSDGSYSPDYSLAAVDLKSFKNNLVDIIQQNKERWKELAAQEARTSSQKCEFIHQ
Sequence of PDE1C (Q14123 whole entry): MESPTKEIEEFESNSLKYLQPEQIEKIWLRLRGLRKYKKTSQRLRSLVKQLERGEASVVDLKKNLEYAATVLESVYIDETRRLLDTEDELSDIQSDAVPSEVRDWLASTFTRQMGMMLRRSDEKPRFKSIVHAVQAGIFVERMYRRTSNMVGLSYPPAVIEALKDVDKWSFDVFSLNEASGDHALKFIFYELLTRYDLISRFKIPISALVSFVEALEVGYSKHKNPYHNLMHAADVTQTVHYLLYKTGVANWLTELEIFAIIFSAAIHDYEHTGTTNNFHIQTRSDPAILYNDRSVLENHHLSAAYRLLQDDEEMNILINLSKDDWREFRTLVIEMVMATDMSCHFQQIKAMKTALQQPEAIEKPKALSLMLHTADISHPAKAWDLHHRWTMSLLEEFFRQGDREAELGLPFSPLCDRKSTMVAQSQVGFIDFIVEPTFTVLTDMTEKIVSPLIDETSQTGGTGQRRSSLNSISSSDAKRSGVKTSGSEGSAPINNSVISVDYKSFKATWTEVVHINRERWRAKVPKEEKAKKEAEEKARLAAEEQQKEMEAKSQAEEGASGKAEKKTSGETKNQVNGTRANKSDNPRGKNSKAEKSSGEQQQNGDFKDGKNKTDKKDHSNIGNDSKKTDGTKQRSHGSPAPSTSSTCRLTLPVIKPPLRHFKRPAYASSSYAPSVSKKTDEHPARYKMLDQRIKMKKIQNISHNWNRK
Sequence of PDE1B (Q01064 whole entry): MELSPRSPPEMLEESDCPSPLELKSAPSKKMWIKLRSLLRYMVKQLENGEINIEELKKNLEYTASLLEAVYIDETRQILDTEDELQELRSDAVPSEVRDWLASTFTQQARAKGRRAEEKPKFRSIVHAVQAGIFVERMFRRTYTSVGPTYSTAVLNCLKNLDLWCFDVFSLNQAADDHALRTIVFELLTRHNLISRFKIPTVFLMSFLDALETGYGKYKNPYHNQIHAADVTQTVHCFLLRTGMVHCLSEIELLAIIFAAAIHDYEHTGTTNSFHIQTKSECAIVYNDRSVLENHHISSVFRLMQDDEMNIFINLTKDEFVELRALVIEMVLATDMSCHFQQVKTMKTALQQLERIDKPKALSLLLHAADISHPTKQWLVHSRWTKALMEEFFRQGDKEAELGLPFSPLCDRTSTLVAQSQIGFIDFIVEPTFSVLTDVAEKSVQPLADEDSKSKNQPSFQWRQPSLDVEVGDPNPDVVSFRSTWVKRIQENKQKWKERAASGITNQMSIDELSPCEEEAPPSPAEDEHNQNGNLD

Structure (SMILES) | IC50 [1] | IC50 [2] | IC50 ([3]; PDE1B, IC50 (nM)) | IC50 [1, 4] | IC50 [2, 4] | IC50 ([3]; read-out: PDE1B, IC50)
CCOc1ncccc1-c1cc(NCc2scnc2C)c2c(cnn2C(C)C)n1 [Example 71, 5-(2-ethoxy-3-pyridyl)-1-isopropyl-N-[(4-methylthiazol-5-yl)methyl]pyrazolo[4,3-b]pyridin-7-amine] | 170 nM | 180 nM | 18 nM | – | – | –
CCOc1ncccc1-c1cc(NCc2cn(C)cn2)c2c(n1)c(C)nn2C(C)C [Example 58, 5-(2-ethoxypyridin-3-yl)-1-isopropyl-3-methyl-N-((1-methyl-1H-imidazol-4-yl)methyl)-1H-pyrazolo[4,3-b]pyridin-7-amine 2,2,2-trifluoroacetate] | – | – | – | 1.1 nM | 2.1 nM | 0.17 nM
CCOc1ncccc1-c1cc(NCc2cc(CF)no2)c2c(n1)c(C)nn2C(C)C [Example 167, 5-(2-ethoxy-3-pyridyl)-N-[[3-(fluoromethyl)isoxazol-5-yl]methyl]-1-isopropyl-3-methyl-pyrazolo[4,3-b]pyridin-7-amine] | – | – | – | 11 nM | 33 nM | 1 nM
COc1ccccc1-c1cc(NCc2cnn(C)c2)c2c(n1)c(C)nn2C(C)C [Example 63, 1-isopropyl-5-(2-methoxyphenyl)-3-methyl-N-[(1-methylpyrazol-4-yl)methyl]pyrazolo[4,3-b]pyridin-7-amine] | – | – | – | 64 nM | 20 nM | 9.4 nM
CCN(C)c1ncccc1-c1cc(NCc2ccc(OC)cc2)c2c(n1)c(C)nn2C(C)C [Example 198, 5-(2-(ethyl(methyl)amino)pyridin-3-yl)-1-isopropyl-N-(4-methoxybenzyl)-3-methyl-1H-pyrazolo[4,3-b]pyridin-7-amine] | – | – | – | 1100 nM | 1000 nM | 240 nM
CCOc1ncccc1-c1cc(NCc2ncccc2OC)c2c(n1)c(C)nn2C(C)C [Example 118, 5-(2-ethoxy-3-pyridyl)-1-isopropyl-N-[(3-methoxy-2-pyridyl)methyl]-3-methyl-pyrazolo[4,3-b]pyridin-7-amine] | – | – | – | 13 nM | 88 nM | 0.42 nM
CCOc1ncccc1-c1cc(NCc2cccc(C)n2)c2c(n1)c(C)nn2C(C)C [Example 101, 5-(2-ethoxy-3-pyridyl)-1-isopropyl-3-methyl-N-[(6-methyl-2-pyridyl)methyl]pyrazolo[4,3-b]pyridin-7-amine] | – | – | – | 20 nM | 43 nM | 0.9 nM
CCOc1ncccc1-c1cc(NCc2nccn2C)c2c(cnn2C(C)C)n1 [Example 17, 5-(2-ethoxy-3-pyridyl)-1-isopropyl-N-[(1-methylimidazol-2-yl)methyl]pyrazolo[4,3-b]pyridin-7-amine] | – | – | – | 700 nM | 970 nM | 54 nM
[2H]C([2H])(C)Oc1ncccc1-c1cc(NCc2cccnc2OC)c2c(n1)c(C)nn2C(C)C [Example 180, 5-(2-(ethoxy-1,1-d2)pyridin-3-yl)-1-isopropyl-N-((2-methoxypyridin-3-yl)methyl)-3-methyl-1H-pyrazolo[4,3-b]pyridin-7-amine] | 27 nM | 78 nM | 0.77 nM | – | – | –
COc1ccc(CNc2cc(-c3cccnc3OC)nc3c(C)nn(C(C)C)c23)cn1 [Example 96, 1-isopropyl-5-(2-methoxy-3-pyridyl)-N-[(6-methoxy-3-pyridyl)methyl]-3-methyl-pyrazolo[4,3-b]pyridin-7-amine] | – | – | – | 18 nM | 5.3 nM | 3.8 nM
CCOc1ncccc1-c1cc(NCc2ccc(C(F)F)nc2)c2c(n1)c(C)nn2C(C)C [Example 117, N-[[6-(difluoromethyl)-3-pyridyl]methyl]-5-(2-ethoxy-3-pyridyl)-1-isopropyl-3-methyl-pyrazolo[4,3-b]pyridin-7-amine] | – | – | – | 18 nM | 26 nM | 2.3 nM
CCCOc1ncccc1-c1cc(NCc2cc[nH]n2)c2c(n1)c(C)nn2C(C)C [Example 143, 1-isopropyl-3-methyl-5-(2-propoxy-3-pyridyl)-N-(1H-pyrazol-3-ylmethyl)pyrazolo[4,3-b]pyridin-7-amine] | – | – | – | 3.8 nM | 9.2 nM | 0.26 nM
CCOc1ncccc1-c1cc(NCc2cccnc2F)c2c(n1)c(C)nn2C(C)C [Example 85, 5-(2-ethoxy-3-pyridyl)-N-[(2-fluoro-3-pyridyl)methyl]-1-isopropyl-3-methyl-pyrazolo[4,3-b]pyridin-7-amine] | – | – | – | 8.4 nM | 27 nM | 0.22 nM
CCOc1ncccc1-c1cc(NCc2cccnc2C(F)F)c2c(n1)c(C)nn2C(C)C [Example 178, N-[[2-(difluoromethyl)-3-pyridyl]methyl]-5-(2-ethoxy-3-pyridyl)-1-isopropyl-3-methyl-pyrazolo[4,3-b]pyridin-7-amine] | – | – | – | 31 nM | 63 nM | 3.2 nM
CCOc1ncccc1-c1cc(NCc2ccc(C)cc2)c2c(cnn2C(C)C)n1 [Example 24, 5-(2-ethoxy-3-pyridyl)-1-isopropyl-N-(p-tolylmethyl)pyrazolo[4,3-b]pyridin-7-amine] | – | – | – | 380 nM | 1200 nM | 160 nM
CCOc1ncccc1-c1cc(NCc2cc(C)cs2)c2c(n1)c(C)nn2C(C)C [Example 35, 5-(2-ethoxy-3-pyridyl)-1-isopropyl-3-methyl-N-[(4-methyl-2-thienyl)methyl]pyrazolo[4,3-b]pyridin-7-amine] | – | – | – | 7.3 nM | 32 nM | 1.7 nM
CCOc1ncccc1-c1cc(NCc2cccnc2)c2c(n1)c(C)nn2C(C)C [Example 115, 5-(2-ethoxy-3-pyridyl)-1-isopropyl-3-methyl-N-(3-pyridylmethyl)pyrazolo[4,3-b]pyridin-7-amine] | – | – | – | 15 nM | 31 nM | 2 nM
CCOc1ncccc1-c1cc(NCc2ccc(OC)cn2)c2c(n1)c(C)nn2C(C)C [Example 112, 5-(2-ethoxy-3-pyridyl)-1-isopropyl-N-[(5-methoxy-2-pyridyl)methyl]-3-methyl-pyrazolo[4,3-b]pyridin-7-amine] | – | – | – | 61 nM | 100 nM | 12 nM
CCOc1ncccc1-c1cc(NCc2nc[nH]n2)c2c(n1)c(C)nn2C(C)CC (single isomer, unassigned) [Example 144, 5-(2-ethoxy-3-pyridyl)-3-methyl-1-[1-methylpropyl]-N-(1H-1,2,4-triazol-3-ylmethyl)pyrazolo[4,3-b]pyridin-7-amine] | – | – | 1.1 nM | 14 nM | 23 nM | –
Cc1csc(-c2cc(NCc3cnn(C)c3)c3c(n2)c(C)nn3C(C)C)n1 [Example 149, 1-isopropyl-3-methyl-N-[(1-methylpyrazol-4-yl)methyl]-5-(4-methylthiazol-2-yl)pyrazolo[4,3-b]pyridin-7-amine] | – | – | – | 29 nM | 69 nM | 2.4 nM
COc1ncccc1CNc1cc(-c2ccc[nH]c2=O)nc2c(C)nn(C(C)C)c12 [Example 171, 3-[1-isopropyl-7-[(2-methoxy-3-pyridyl)methylamino]-3-methyl-pyrazolo[4,3-b]pyridin-5-yl]-1H-pyridin-2-one] | – | – | – | 290 nM | 420 nM | 47 nM
CCCOc1ncccc1-c1cc(NCc2cn(C)cn2)c2c(n1)c(C)nn2C(C)C [Example 142, 1-isopropyl-3-methyl-N-[(1-methylimidazol-4-yl)methyl]-5-(2-propoxy-3-pyridyl)pyrazolo[4,3-b]pyridin-7-amine] | – | – | – | 0.26 nM | 0.8 nM | 0.1 nM
Cc1nn(C(C)C)c2c(NCc3cnn(C)c3)cc(-c3cnnn3C)nc12 [Example 169, 1-isopropyl-3-methyl-N-[(1-methylpyrazol-4-yl)methyl]-5-(3-methyltriazol-4-yl)pyrazolo[4,3-b]pyridin-7-amine] | – | – | – | 610 nM | 170 nM | 85 nM
Cc1nn(C(C)C)c2c(NCc3cnn(C)c3)cc(N3CC(C)OC3=O)nc12 (stereo not drawn) [Example 150, 3-[1-isopropyl-3-methyl-7-[(1-methylpyrazol-4-yl)methylamino]pyrazolo[4,3-b]pyridin-5-yl]-5-methyl-oxazolidin-2-one] | – | – | – | 44 nM | 13 nM | 33 nM
CCOc1ncccc1-c1cc(NCc2cnn(C)c2)c2c(cnn2C2COC2)n1 [Example 14, 5-(2-ethoxypyridin-3-yl)-N-((1-methyl-1H-pyrazol-4-yl)methyl)-1-(oxetan-3-yl)-1H-pyrazolo[4,3-b]pyridin-7-amine] | – | – | – | 450 nM | 300 nM | 38 nM
CCOc1ncccc1-c1cc(NCc2cc(OC)ncn2)c2c(n1)c(C)nn2C(C)C [Example 179, 5-(2-ethoxy-3-pyridyl)-1-isopropyl-N-[(6-methoxypyrimidin-4-yl)methyl]-3-methyl-pyrazolo[4,3-b]pyridin-7-amine] | – | – | – | 2.8 nM | 7 nM | 0.51 nM
Cc1nn(C(C)C)c2c(NCc3ncn(C)n3)cc(-c3ccc[nH]c3=O)nc12 [Example 186, 3-[1-isopropyl-3-methyl-7-[(1-methyl-1,2,4-triazol-3-yl)methylamino]pyrazolo[4,3-b]pyridin-5-yl]-1H-pyridin-2-one] | – | – | – | 64 nM | 130 nM | 15 nM
COc1ncccc1CNc1cc(-c2ccnn2C)nc2c(C)nn(C(C)C)c12 [Example 175, 1-isopropyl-N-((2-methoxypyridin-3-yl)methyl)-3-methyl-5-(1-methyl-1H-pyrazol-5-yl)-1H-pyrazolo[4,3-b]pyridin-7-amine] | – | – | – | 83 nM | 130 nM | 17 nM
CCOc1ncccc1-c1cc(NCc2cccc(C)c2)c2c(cnn2C(C)C)n1 [Example 23, 5-(2-ethoxy-3-pyridyl)-1-isopropyl-N-(m-tolylmethyl)pyrazolo[4,3-b]pyridin-7-amine] | – | – | – | 240 nM | 750 nM | 38 nM
